Assay results as given in patent EP4603107A1, “BIOORTHOGONAL, ANILINIUM BASED CLEAVABLE TETRAZINES” (University of Copenhagen, priority 2024, dated 2025).

Tests used:
[1] = Chemical stability in PBS (HPLC); assay type: physicochemical; details: HPLC at RT, 9:1 PBS/MeCN solution, 1.0-1.5 mM Tz, 254 nm; read-out: PBS stability t1/2
Protocol: Ten tetrazines of formula (I) (Table 2) were tested in relation to chemical stability in PBS. The results are shown in Table 2 for the chemical half-life was measured by HPLC at RT, in 9:1 PBS/MeCN solution, using 1.0-1.5 mM Tz (a); based on average peak intensities of the corresponding Tz and the corresponding oxadiazoles (the degradation product), at 254 nm.

[2] = Click kinetics, stopped-flow measurement of tetrazine ligation with equatorial TCO-PEG4; details: PBS (10mM), 37 °C, TCO 1 mM, tetrazine 100 µM, absorbance at 535 nm
Protocol: Nine tetrazines of formula (I) (Table 1) were clicked with equatorial TCO-PEG4 (rel-(1R-4E-pR)-cyclooct-4-en-1-yl (2-(2-(2-(2-hydroxyethoxy)ethoxy)ethoxy)ethyl)carbamate).
Stopped-flow measurements were performed using an SX20-LED stopped-flow spectrophotometer (Applied Photophysics) equipped with a 535 nm LED (optical pathlength 10 mm, full width half-maximum 34 nm) to monitor the characteristic tetrazine visible light absorbance (520-540 nm).
A stock solution of eqTCO-PEG4 in DMSO was prepared at an approximate concentration above 100 mM. The exact concentration was determined by absorbance titration with 3,6-di-2-pyridyl-1,2,4,5-tetrazine. Stock solutions of tetrazines in DMSO were prepared at a concentration of 10 mM. These initial stock solutions were diluted into PBS (10mM) before stopped-flow analysis to reach a final TCO concentration of 1 mM and a tetrazine concentration of 100 µM. The reagent syringes were loaded with solutions of the Tz and eqTCO-PEG4, and the instrument was primed. Subsequent data were collected in triplicate to sextuplicate for each tetrazine. Reactions were conducted at 37 °C and recorded automatically at the time of acquisition. Data sets were analyzed by fitting an exponential decay using Prism 6 (Graphpad) to calculate the observed pseudo-first-order rate constants that were converted into second-order rate constants by dividing with the concentration of the excess TCO compound. Table 1: second rate order constant (M-1s-1) for the ligation between nine tetrazines and equatorial TCO-PEG4 (rel-(1R-4E-pR)-cyclooct-4-en-1-yl (2-(2-(2-(2-hydroxyethoxy)ethoxy)ethoxy)ethyl)carbamate).

half-life [1]	SMILES	second order rate constant [2]
0.797 ± 0.0583 h	C[N+](C)(Cc1nnc(-c2ccc(F)cc2)nn1)c1ccccc1.[Br-] [Compound 20, N-((6-(4-fluorophenyl)-1,2,4,5-tetrazin-3-yl)methyl)-N,N-dimethylbenzenaminium bromide]	580 M⁻¹ s⁻¹
1.783 ± 0.0167 h	Cc1ccc(-c2nnc(C[N+](C)(C)c3ccccc3)nn2)cc1.[Br-] [Compound 22, N,N-dimethyl-N-((6-(p-tolyl)-1,2,4,5-tetrazin-3-yl)methyl)benzenaminium bromide]	480 M⁻¹ s⁻¹
4.95 ± 0.1 h	C[N+](C)(Cc1nnc(-c2ccc(O)cc2)nn1)c1ccccc1.[Br-] [Compound 24, N-((6-(4-hydroxyphenyl)-1,2,4,5-tetrazin-3-yl)methyl)-N,N-dimethylbenzenaminium bromide]	
1.15 ± 0.1 h	Cc1ccc([N+](C)(C)Cc2nnc(-c3ccccc3)nn2)cc1.[Br-] [Compound 25, N,N,4-trimethyl-N-((6-phenyl-1,2,4,5-tetrazin-3-yl)methyl)benzenaminium bromide]	620 M⁻¹ s⁻¹
1.87 ± 0.357 h	COc1ccc([N+](C)(C)Cc2nnc(-c3ccccc3)nn2)cc1.[Br-] [Compound 26, 4-methoxy-N,N-dimethyl-N-((6-phenyl-1,2,4,5-tetrazin-3-yl)methyl)benzenaminium bromide]	670 M⁻¹ s⁻¹
5.19 ± 1.15 h	C[N+](C)(Cc1nnc(-c2ccccc2)nn1)c1ccc(O)cc1.[Br-] [Compound 27, 4-hydroxy-N,N-dimethyl-N-((6-phenyl-1,2,4,5-tetrazin-3-yl)methyl)benzenaminium bromide]	620 M⁻¹ s⁻¹

More lines, now with the values behind:

SMILES	half-life [1]	second order rate constant [2]
COc1cccc(-c2nnc(C[N+](C)(C)c3ccccc3)nn2)c1.[Br-] [Compound 19, N-((6-(3-methoxyphenyl)-1,2,4,5-tetrazin-3-yl)methyl)-N,N-dimethylbenzenaminium bromide]	0.803 ± 0.00833 h	790 M⁻¹ s⁻¹
C[N+](C)(Cc1nnc(-c2ccccc2)nn1)c1ccccc1.[Br-] [Compound 21, N,N-dimethyl-N-((6-phenyl-1,2,4,5-tetrazin-3-yl)methyl)benzenaminium bromide]	0.9667 ± 0.00833 h	650 M⁻¹ s⁻¹
COc1ccc(-c2nnc(C[N+](C)(C)c3ccccc3)nn2)cc1.[Br-] [Compound 23, N-((6-(4-methoxyphenyl)-1,2,4,5-tetrazin-3-yl)methyl)-N,N-dimethylbenzenaminium bromide]	2.58 ± 0.683 h	370 M⁻¹ s⁻¹
COc1ccc(-c2nnc(C[N+](C)(C)c3ccc(OC)cc3)nn2)cc1.[Br-] [Compound 29, 4-methoxy-N-((6-(4-methoxyphenyl)-1,2,4,5-tetrazin-3-yl)methyl)-N,N-dimethylbenzenaminium bromide]	9.365 ± 0.0125 h	340 M⁻¹ s⁻¹
